Assay results published in patent US6803501B2 (Monsanto Technology, LLC, priority 2000, dated 2004).

System: E. coli SR481 cells expressing E. indica EPSP synthase (tolerant vs sensitive biotype)
Assay: growth of transgenic E. coli aroA- cells expressing E. indica EPSPS in the presence of glyphosate (FIG. 3)
Assay type: cell-based
Settings: M9 minimal media, 0.0, 0.5, 1.5 or 5.0 mM glyphosate, 0-48 hours, vs sensitive biotype enzyme
Protocol: The EPSP synthase mature protein-coding regions isolated from the glyphosate tolerant and glyphosate sensitive E. indica biotypes, can be directly compared for their ability to confer tolerance to glyphosate in transgenic hosts.
These sequences are employed in RT-PCR reactions to generate expression cassettes suitable for cloning into pMON45337 cut with the restriction enzymes Nde1 and EcoR1. RT-PCR reactions are performed with total RNAs extracted from frozen crown samples using the RNeasy Plant Mini Kit (cat.#74904, Qiagen Inc., Valencia, Calif.) per manufacturer's instructions. Oligo dT-primed first-strand cDNAs are prepared from 5 μg samples of total RNA using the Superscript Pre-Amplification System (cat.#18089-011, Life Technologies, Rockville, Md.) per manufacturer's instructions. Two μl of first-strand cDNA are then used to generate E. indica EPSP synthase expression cassettes via polymerase chain reaction. The oligonucleotides are added in 50 μl RT-PCR reactions at a final concentration of 0.4 μM. PCR amplifications are then performed using the Expand High Fidelity PCR System (cat.#1 732 641, Roche Molecular Biochemicals, Indianapolis, Ind.) per manufacturer's instructions, using a thermal profile of 94° C. for 30 seconds, then 57° C. for 2 minutes, followed by 75° C. for 3 minutes, for a total of 35 cycles. […]

Q: With O=C(O)CNCP(=O)(O)O [glyphosate, N-phosphonomethylglycine] as the molecule, how does the “increase in tolerance to glyphosate due to EPSP synthase from tolerant E. indica biotype” value read?
A: The value was “approximately three-fold increase in tolerance to glyphosate”.
